{"source": "paper PMC6629785", "about": "“Synthesis and Pharmacological Evaluation of a Novel Peptide Based on Anemonia sulcata BDS-I Toxin as a New KV3.4 Inhibitor Exerting a Neuroprotective Effect Against Amyloid-β Peptide” (Frontiers in Chemistry, 2019)", "key": {"[1]": {"test_system": "NGF-differentiated PC-12 cells", "assay": "Assessment of nuclear morphology with Hoechst-33258 after Aβ1−42 exposure", "assay_type": "cell-based, Rat", "details": "peptide 100 nM pre-treatment; Aβ1−42 oligomers 5 μM, 24 h; Hoechst staining; 3 separate experiments, ~1,000 cells per group", "protocol": "(§1) Rat pheochromocytoma cells (PC-12 cells) were grown as previously described (Pannaccione et al., [2005], [2007]). For all the experiments, cells were seeded at low density on glass cover-slips coated with poly-L-lysine (50 μg/ml). Differentiation of PC-12 cells was achieved by treatment with neuronal growth factor (NGF) 2.5 S (50 ng/ml) for 7–9 days (Greene and Tischler, [1976]). For electrophysiological experiments, cells were seeded on glass cover-slips and used after 7–9 days of NGF. […]\nNuclear morphology was evaluated by using the fluorescent DNA-binding dye Hoechst-33258 already described (Pannaccione et al., [2007]).\n(§2) The peptide used in our study was synthesized by INBIOS (Pozzuoli, Naples, Italy) using the Aβ1−42 sequence of human APP [UniProtKB-P05067 (A4_HUMAN)]. The purity of the peptide was assessed by high-performance liquid chromatography (>95% pure) and the amino acid composition was verified by mass spectrometry. […] The pre-aggregated preparation of Aβ oligomers was analyzed in SDS-PAGE using the rabbit monoclonal anti-Aβ on precast gels 4-20%. […]\nFigure 7 Effect of BDS-I[1-8] on Aβ1−42-induced abnormal nuclear morphology and caspase-3 activation in NGF-differentiated PC-12 cells. […] Values are expressed as mean±SEM of 3 independent experimental sessions. […]"}, "caspase-3 activation": {"test_system": "caspase-3 activation", "assay": "Western blot of cleaved (activated) caspase-3 after Aβ1−42 exposure", "assay_type": "cell-based, Rat", "details": "peptide 100 nM, 30 min pre-treatment; Aβ1−42 oligomers 5 μM, 24 h; western blot densitometry, 3 sessions", "protocol": "as §1\nNGF-differentiated PC-12 and CHO cells were washed in phosphate buffered saline (PBS) and collected by gentle scraping in ice-cold RIPA buffer containing in mM: 50 Tris pH 7.4, 100 NaCl, 1 EGTA, 1 PMSF, 1 sodium orthovanadate, 1 NaF, 0.5% NP-40, and 0.2% SDS supplemented with protease inhibitor cocktail II. […] The protein content of resulting supernatant was determined using the Bradford reagent. […]\nas §2"}}, "note": "Ends that are not written are not given here.", "data": [{"substance": "AAPAFASG [BDS-I[1-8]]", "values": [{"measurement": "effect on abnormal nuclear morphology induced by Aβ1−42 exposure", "setting": "[1]", "value": "able to significantly prevent"}, {"measurement": "effect on Aβ1−42-induced caspase-3 activation", "setting": "caspase-3 activation", "value": "prevented"}]}, {"substance": "H-GSAFAPAA-OH [BDS-I[1-8scr]]", "values": [{"measurement": "effect on Aβ1−42-induced caspase-3 activation", "setting": "caspase-3 activation", "value": "did not"}]}, {"substance": "blood depressing substance-I [BDS-I]", "values": [{"measurement": "effect on abnormal nuclear morphology induced by Aβ1−42 exposure", "setting": "[1]", "value": "able to significantly prevent"}]}]}
